One may read the MTD as the highest dose tested that stayed within the study's limit of toxicity. High values mean a wide tolerated range, low ones a narrow tolerated range. In general, IC50 refers to the midpoint of a concentration-inhibition curve.

Molecules are shown by their SMILES. Read-outs that look alike come from different tables or passages of the source.

These results are taken from patent US10646490B2, “Thieno- and pyrrolopyrimidine analogues and prodrugs thereof as anticancer agents and methods of use thereof” (UNIVERSITY OF MARYLAND, BALTIMORE COUNTY, priority 2015, dated 2020).

The nature of series [1]: Maximum tolerated dose / toxicity in mice. The format is in vivo. The settings on record: for MTD: mouse, in vivo. The source says: (§1) In order to investigate the PK profile of these compounds, a series of halogenated pyrrolo[3,2-d]pyrimidine compounds was synthesized and first tested for activity in various cancer cell lines followed by a mouse model. […] This indicates a wide variance in activity and toxicity that necessitated the synthesis of a second series of compounds with N5 alkyl substitutions in an effort to slow the rate of metabolism, which was thought to be leading to the toxicity.

The test system of series [2] is various cancer cell lines. As to the kind of experiment: Cancer cell line activity screening, panel. The format is cell-based. To be noted: Table 5; read-out: IC50 values as low as.
Description: as §1

The test system of another series is MOLM14. As to the kind of experiment: Cancer cell line activity screening. The format is cell-based.
The next series deals with MDA-MB-231. As to the kind of experiment: Cancer cell line activity screening. Format: cell-based, human.
In a further series the test system is A549. Put plainly: Cancer cell line activity screening. Format: cell-based.
The test system of series [3] is MIA Pa-Ca-2 pancreatic cancer cells. As to the kind of experiment: Cancer cell line activity screening. Format: cell-based.
Series [4] can be described thus: Mouse pharmacokinetics, plasma half-life. The format is in vivo. The settings on record: for t1/2: 10 mg/kg injection. As for the experimental part: Further, mouse studies on 7 were carried out at The Cancer Center Pharmacology Core (CCPC, Colorado State University) by injection of 10 mg/kg of the compound, followed by euthanization at 15, 30, 60, 90, 120, 240, and 480 minutes. […] Mouse studies on 9 were performed in the same manner.

The nature of series [5]: Stability in aqueous buffer. Format: physicochemical.
Series [6] can be described thus: Stability in biological media. Format: in vitro ADME.

In series [1] (mice), `Clc1nc(Cl)c2[nH]cc(Br)c2n1` [Compound 6] had an MTD of 5 to 40 mg/kg. For the same compound, in series [1] (vs 7), the “toxicity higher than 7” value was 2 fold. The IC50 in series [2] was not below 14 nM; in the series with MOLM14 (Homo sapiens, MOLM-14) it was 23 ± 4 nM; with MDA-MB-231 (Homo sapiens, MDA-MB-231), 400 ± 300 nM; in the series with A549 (Homo sapiens, A549), 50 ± 20 nM; in series [3] (Homo sapiens, MIA PaCa-2) it was 14 ± 1 nM.
`Clc1nc(Cl)c2c(n1)c(I)cn2COCc1ccccc1` [Compound 8, 5-((Benzyloxy)methyl)-2,4-dichloro-7-iodo-pyrrolo[3,2-d]pyrimidine]: the IC50 with MDA-MB-231 (Homo sapiens, MDA-MB-231) was found to be 6100 ± 400 nM; in series [3] (Homo sapiens, MIA PaCa-2), 7300 ± 800 nM.
As for `Cc1ccc(S(=O)(=O)n2cc(I)c3nc(Cl)nc(Cl)c32)cc1` [Compound 9, 2,4-Dichloro-7-iodo-5-tosyl-pyrrolo[3,2-d]pyrimidine], the “maximum tolerated dose (MTD)” value in series [1] (mice) is on record as 40 mg/kg. The compound further gave an MTD in series [1] (mice) of 5 to 40 mg/kg. For the same compound, the t1/2 in series [4] was 32.7 min. Also, the IC50 turned out to be 790 ± 40 nM in the series with MDA-MB-231 (Homo sapiens, MDA-MB-231) and 500 ± 20 nM in series [3] (Homo sapiens, MIA PaCa-2). The “duration stable in aqueous buffer (for up to)” value in [5] is listed as “up to 24 hours”. The “time to undetectable in biological media” value in [6] is not above 1 hour.
Regarding `Clc1nc(Cl)c2[nH]ccc2n1` [Compound 19, 2,4-Dichloropyrrolo[3,2-d]pyrimidine], the IC50 in the series on MOLM14 came to 9500 ± 3100 nM; in the series with MDA-MB-231, 9700 ± 9700 nM; in the series on A549, 14500 ± 3500 nM; in series [3] it was 5300 ± 1000 nM.
For the compound `Clc1nc(Cl)c2[nH]cc(I)c2n1` [Compound 20, 7-iodo-2,4-dichloro pyrrolo[3,2-d]pyrimidine], the MTD in [1] (mice) was in the range of 5 to 40 mg/kg. In addition, the IC50 in series [2] was not below 14 nM; in the series on MOLM14 (Homo sapiens, MOLM-14), 550 ± 70 nM; with MDA-MB-231 (Homo sapiens, MDA-MB-231) it was 1200 ± 400 nM; in the series with A549 (Homo sapiens, A549), 1000 ± 100 nM; in [3] (Homo sapiens, MIA PaCa-2), 370 ± 50 nM. Besides, the “time to little to no detection in mouse plasma” value in series [4] is not above 70 min. In series [4], this compound displayed a t1/2 of 30.7 min.
